Values of other authors as cited in patent publication US9532987B2, “Use of a combination of a MEK inhibitor and an ERK inhibitor for treatment of hyperproliferative diseases” (Genentech, Inc., priority 2013, dated 2017).

Experiments:
[1] = tested on: tumor cells bearing activating Ras mutations
[2] = tested on: tumor cells bearing activating B-RAF mutations

Row | Structure (SMILES) | inhibition of tumor cell growth [1] | inhibition of tumor cell growth [2]
1 | O=C(c1ccc(F)c(F)c1Nc1ccc(I)cc1F)N1CC(O)([C@@H]2CCCCN2)C1 [GDC-0973, [3,4-difluoro-2-[(2-fluoro-4-iodophenyl)amino]phenyl][3-hydroxy-3-[(2S)-2-piperidinyl]-1-azetidinyl]methanone] | effective | more activity
2 | O=C(NOCCO)c1ccc2cncn2c1Nc1ccc(I)cc1F [GDC-0623, 5-[(2-fluoro-4-iodophenyl)amino]-N-(2-hydroxyethoxy)-imidazo[1,5-a]pyridine-6-carboxamide] | more activity | effective
